# Assay results from ChEMBL document CHEMBL5465560, “Selectivity Literature for EUbOPEN Chemogenomic Library” (2024).
# Key:
# [1] = molecular target: T1, Serine/threonine-protein kinase Sgk3 (Homo sapiens) (UniProt Q96BR1); experiment: Selectivity interaction (KinomeScan (DiscoverX)) EUB0001049a SGK3; details: at 1 µM
# T1 sequence (whole entry): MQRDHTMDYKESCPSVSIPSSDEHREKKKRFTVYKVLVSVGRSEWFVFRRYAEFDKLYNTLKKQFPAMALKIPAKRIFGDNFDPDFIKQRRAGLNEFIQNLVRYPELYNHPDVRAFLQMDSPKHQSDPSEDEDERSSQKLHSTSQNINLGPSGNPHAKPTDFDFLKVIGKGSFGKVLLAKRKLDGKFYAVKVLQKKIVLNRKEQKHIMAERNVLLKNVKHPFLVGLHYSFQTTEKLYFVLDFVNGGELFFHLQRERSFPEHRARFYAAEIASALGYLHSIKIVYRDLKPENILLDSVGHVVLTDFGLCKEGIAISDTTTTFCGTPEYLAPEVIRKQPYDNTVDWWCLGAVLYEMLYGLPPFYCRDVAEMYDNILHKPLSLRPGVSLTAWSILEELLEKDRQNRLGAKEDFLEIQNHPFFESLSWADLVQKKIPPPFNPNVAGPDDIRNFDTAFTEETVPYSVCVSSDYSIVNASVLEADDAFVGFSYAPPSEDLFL
# [2] = molecular target: T2, Serine/threonine-protein kinase tousled-like 1 (Homo sapiens) (UniProt Q9UKI8); experiment: Selectivity interaction (KinomeScan (DiscoverX)) EUB0000229b TLK1; details: at 10 µM
# T2 sequence (whole entry): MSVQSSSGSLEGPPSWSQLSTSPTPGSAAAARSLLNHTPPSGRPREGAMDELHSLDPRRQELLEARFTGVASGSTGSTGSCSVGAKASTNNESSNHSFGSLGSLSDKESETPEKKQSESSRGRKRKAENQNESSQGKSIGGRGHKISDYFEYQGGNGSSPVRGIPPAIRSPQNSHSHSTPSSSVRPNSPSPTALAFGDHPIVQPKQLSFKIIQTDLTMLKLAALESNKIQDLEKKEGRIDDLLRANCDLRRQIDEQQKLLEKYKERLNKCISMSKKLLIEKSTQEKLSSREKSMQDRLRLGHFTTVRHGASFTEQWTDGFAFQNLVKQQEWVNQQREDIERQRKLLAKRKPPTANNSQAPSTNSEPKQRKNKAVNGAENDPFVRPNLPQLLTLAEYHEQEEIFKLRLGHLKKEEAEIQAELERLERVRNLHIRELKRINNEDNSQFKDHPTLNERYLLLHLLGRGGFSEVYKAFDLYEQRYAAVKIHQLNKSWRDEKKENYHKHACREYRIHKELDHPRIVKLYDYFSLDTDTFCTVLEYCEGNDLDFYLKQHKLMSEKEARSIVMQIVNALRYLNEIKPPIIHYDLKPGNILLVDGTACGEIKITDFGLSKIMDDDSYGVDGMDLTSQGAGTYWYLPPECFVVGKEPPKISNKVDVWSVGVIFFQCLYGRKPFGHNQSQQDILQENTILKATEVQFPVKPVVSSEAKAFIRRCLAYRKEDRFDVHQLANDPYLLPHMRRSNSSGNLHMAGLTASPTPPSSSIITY
# Ephrin type-A receptor 4 = Ephrin type-A receptor 4 (Homo sapiens, UniProt P54764); details: at 10 µM
# [3] = molecular target: Serine/threonine-protein kinase 24 (Homo sapiens) (UniProt Q9Y6E0); experiment: Selectivity interaction (ActivX KiNativ screen (kinase selectivity in THP-1 cell lysates)) EUB0000639a STK24; type: subcellular; details: lysate, at 5 µM
# [4] = molecular target: MAP/microtubule affinity-regulating kinase 3 (Homo sapiens) (UniProt P27448); experiment: Selectivity interaction (ActivX KiNativ screen (kinase selectivity in THP-1 cell lysates)) EUB0000639a MARK3; type: subcellular; details: lysate, at 1 µM
# [5] = molecular target: T3, Mitogen-activated protein kinase kinase kinase 7 (Homo sapiens) (UniProt O43318); experiment: Selectivity interaction (KinomeScan (DiscoverX)) EUB0000595a MAP3K7; details: at 10 µM
# T3 sequence (whole entry): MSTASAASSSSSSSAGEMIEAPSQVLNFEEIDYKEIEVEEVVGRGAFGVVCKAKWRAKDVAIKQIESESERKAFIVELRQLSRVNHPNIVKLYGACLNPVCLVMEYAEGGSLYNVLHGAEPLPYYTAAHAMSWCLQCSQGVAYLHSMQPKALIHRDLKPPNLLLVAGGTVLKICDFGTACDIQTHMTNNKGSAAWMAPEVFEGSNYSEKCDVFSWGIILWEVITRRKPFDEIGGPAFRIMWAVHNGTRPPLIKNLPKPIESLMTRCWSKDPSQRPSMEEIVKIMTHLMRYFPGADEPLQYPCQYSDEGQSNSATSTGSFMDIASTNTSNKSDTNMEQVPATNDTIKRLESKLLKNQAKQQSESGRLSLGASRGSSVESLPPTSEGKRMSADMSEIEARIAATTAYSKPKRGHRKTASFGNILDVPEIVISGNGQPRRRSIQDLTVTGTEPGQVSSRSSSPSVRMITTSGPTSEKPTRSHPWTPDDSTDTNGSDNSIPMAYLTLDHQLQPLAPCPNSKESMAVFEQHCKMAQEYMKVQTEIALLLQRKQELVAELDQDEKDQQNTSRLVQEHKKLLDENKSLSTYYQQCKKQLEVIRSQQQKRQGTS
# [6] = molecular target: Cyclin-dependent kinase 5 (Homo sapiens, UniProt Q00535); experiment: Selectivity interaction (KinomeScan (DiscoverX)) EUB0000092b CDK5; details: at 10 µM
# [7] = molecular target: Ephrin type-A receptor 2 (Homo sapiens) (UniProt P29317); experiment: Selectivity interaction (Ambit KINOMEscan and KiNATiv profiling in Jurkat cells) EUB0000090b EPHA2; type: cell-based; details: at 1 µM
# [8] = molecular target: Serine/threonine-protein kinase PLK1 (Homo sapiens, UniProt P53350); details: at 10 µM
# [9] = system: Tyrosine-protein kinase ABL1 (Homo sapiens), P00519 [F317L]; experiment: Selectivity interaction (KinomeScan (DiscoverX)) EUB0000655a ABL1; details: at 10 µM
# [10] = molecular target: Ribosomal protein S6 kinase alpha-6 (Homo sapiens, UniProt Q9UK32); experiment: Selectivity interaction (KinomeScan (DiscoverX)) EUB0000695a RPS6KA6; details: at 100 nM
# [11] = molecular target: Proto-oncogene tyrosine-protein kinase Src (Homo sapiens, UniProt P12931); experiment: Selectivity interaction (KinomeScan (DiscoverX)) EUB0000607a SRC; details: at 10 µM
# [12] = molecular target: Mitogen-activated protein kinase kinase kinase 14 (Homo sapiens) (UniProt Q99558); experiment: Selectivity interaction (LanthaScreen Eu Kinase Binding Assay) EUB0001632a MAP3K14; details: at 10 µM
# Sequence of Mitogen-activated protein kinase kinase kinase 14 (Homo sapiens) (Q99558 whole entry, looked up): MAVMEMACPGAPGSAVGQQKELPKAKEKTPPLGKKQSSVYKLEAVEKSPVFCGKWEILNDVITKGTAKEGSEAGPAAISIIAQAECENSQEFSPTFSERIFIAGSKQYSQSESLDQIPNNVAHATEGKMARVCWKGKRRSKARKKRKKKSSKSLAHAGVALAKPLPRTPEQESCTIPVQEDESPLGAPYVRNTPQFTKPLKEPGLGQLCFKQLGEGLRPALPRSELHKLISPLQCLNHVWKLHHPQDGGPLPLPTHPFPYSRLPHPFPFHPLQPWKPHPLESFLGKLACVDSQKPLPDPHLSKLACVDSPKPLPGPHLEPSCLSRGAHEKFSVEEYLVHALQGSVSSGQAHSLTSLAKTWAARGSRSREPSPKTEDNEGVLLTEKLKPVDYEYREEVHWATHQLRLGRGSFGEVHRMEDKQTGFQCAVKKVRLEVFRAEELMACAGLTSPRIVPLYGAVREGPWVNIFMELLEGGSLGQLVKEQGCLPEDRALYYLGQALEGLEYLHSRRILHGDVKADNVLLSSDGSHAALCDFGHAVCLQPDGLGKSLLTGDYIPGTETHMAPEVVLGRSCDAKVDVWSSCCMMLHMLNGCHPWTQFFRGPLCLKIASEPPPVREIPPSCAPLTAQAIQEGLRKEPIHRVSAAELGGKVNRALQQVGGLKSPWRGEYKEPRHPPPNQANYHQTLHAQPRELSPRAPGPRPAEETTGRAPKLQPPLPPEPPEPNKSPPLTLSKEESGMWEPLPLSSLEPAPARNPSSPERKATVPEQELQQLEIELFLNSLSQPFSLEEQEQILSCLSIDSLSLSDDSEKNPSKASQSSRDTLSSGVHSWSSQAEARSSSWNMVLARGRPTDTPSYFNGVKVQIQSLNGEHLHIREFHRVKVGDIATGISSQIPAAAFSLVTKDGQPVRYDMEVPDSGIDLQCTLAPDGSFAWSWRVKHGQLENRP
# Sequence of Ephrin type-A receptor 2 (Homo sapiens) (P29317 whole entry): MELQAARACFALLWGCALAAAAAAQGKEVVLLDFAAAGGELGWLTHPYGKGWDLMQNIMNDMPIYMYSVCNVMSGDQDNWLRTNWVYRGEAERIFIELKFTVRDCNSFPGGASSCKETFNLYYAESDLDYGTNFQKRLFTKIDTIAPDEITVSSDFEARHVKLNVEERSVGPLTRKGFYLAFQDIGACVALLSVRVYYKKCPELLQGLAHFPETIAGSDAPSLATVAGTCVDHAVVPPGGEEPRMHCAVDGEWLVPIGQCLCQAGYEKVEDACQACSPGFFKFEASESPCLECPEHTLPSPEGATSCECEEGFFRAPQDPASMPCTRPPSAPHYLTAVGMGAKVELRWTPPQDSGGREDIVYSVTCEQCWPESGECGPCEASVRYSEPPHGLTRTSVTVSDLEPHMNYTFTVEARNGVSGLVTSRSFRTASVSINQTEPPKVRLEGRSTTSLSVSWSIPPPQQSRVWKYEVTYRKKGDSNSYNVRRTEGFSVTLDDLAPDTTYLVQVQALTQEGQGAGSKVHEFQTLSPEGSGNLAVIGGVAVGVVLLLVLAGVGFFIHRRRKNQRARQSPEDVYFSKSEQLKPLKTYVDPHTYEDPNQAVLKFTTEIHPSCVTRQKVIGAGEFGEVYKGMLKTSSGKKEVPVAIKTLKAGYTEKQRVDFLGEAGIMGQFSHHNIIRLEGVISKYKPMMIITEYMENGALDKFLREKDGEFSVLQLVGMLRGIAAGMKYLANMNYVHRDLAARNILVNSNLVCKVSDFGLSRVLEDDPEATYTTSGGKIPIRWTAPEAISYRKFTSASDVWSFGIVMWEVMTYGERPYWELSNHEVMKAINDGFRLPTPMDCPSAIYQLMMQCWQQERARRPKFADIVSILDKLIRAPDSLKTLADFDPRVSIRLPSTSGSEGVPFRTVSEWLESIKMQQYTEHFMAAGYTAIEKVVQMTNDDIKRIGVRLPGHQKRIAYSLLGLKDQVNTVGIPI
# Sequence of Serine/threonine-protein kinase 24 (Homo sapiens) (Q9Y6E0 whole entry, looked up): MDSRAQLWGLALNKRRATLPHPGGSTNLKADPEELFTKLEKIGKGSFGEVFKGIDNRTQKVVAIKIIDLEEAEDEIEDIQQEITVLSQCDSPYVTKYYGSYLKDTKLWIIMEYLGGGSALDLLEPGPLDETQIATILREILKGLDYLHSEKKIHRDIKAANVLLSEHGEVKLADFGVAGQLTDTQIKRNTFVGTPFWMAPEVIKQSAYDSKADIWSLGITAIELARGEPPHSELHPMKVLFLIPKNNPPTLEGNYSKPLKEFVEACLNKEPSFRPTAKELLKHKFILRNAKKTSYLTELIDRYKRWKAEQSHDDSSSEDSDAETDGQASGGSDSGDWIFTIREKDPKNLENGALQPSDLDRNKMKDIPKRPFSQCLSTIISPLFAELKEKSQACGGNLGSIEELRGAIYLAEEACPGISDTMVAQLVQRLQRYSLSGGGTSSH
# Sequence of Cyclin-dependent kinase 5 (Q00535 whole entry, looked up): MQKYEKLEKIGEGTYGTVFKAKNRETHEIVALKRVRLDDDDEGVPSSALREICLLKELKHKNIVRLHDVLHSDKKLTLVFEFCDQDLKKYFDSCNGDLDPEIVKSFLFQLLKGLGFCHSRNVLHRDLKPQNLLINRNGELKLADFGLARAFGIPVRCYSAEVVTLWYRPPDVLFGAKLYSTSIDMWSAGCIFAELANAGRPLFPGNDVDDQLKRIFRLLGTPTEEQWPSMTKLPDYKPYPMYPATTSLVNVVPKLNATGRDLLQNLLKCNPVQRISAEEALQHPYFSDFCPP
# Sequence of MAP/microtubule affinity-regulating kinase 3 (Homo sapiens) (P27448 whole entry, looked up): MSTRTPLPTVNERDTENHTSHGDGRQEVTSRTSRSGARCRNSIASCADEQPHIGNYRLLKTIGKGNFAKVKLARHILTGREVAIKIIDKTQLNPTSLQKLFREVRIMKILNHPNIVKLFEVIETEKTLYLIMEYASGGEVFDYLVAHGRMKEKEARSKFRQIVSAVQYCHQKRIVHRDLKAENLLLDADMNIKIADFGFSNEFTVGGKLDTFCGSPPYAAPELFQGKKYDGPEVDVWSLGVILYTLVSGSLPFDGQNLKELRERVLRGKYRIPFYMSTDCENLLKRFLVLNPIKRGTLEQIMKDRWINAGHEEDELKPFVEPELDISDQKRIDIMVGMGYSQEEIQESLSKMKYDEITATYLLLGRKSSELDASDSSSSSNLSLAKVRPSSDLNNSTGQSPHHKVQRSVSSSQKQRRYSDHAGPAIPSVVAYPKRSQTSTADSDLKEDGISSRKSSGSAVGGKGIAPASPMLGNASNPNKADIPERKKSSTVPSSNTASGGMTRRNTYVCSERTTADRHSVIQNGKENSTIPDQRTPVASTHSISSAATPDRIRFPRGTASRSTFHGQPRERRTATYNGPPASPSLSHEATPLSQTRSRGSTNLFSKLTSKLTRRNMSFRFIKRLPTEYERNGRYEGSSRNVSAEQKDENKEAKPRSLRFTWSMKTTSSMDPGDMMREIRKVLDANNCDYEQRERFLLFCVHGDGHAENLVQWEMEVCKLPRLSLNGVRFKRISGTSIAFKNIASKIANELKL
# Sequence of Serine/threonine-protein kinase PLK1 (P53350 whole entry): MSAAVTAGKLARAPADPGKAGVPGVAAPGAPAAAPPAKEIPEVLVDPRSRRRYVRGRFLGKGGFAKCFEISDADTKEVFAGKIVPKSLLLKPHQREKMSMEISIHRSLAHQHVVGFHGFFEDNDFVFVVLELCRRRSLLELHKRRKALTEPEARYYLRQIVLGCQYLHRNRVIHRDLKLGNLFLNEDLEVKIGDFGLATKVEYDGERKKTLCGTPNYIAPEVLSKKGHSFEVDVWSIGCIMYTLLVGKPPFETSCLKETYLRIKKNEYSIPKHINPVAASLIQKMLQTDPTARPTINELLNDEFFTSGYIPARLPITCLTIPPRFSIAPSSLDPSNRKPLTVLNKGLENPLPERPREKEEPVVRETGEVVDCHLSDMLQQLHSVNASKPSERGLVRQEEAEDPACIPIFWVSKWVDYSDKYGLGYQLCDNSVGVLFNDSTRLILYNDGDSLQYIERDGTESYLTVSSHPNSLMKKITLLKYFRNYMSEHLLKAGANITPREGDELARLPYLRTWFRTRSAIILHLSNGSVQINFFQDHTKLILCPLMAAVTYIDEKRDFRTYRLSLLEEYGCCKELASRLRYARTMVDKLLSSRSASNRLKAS
# Sequence of Ephrin type-A receptor 4 (P54764 whole entry): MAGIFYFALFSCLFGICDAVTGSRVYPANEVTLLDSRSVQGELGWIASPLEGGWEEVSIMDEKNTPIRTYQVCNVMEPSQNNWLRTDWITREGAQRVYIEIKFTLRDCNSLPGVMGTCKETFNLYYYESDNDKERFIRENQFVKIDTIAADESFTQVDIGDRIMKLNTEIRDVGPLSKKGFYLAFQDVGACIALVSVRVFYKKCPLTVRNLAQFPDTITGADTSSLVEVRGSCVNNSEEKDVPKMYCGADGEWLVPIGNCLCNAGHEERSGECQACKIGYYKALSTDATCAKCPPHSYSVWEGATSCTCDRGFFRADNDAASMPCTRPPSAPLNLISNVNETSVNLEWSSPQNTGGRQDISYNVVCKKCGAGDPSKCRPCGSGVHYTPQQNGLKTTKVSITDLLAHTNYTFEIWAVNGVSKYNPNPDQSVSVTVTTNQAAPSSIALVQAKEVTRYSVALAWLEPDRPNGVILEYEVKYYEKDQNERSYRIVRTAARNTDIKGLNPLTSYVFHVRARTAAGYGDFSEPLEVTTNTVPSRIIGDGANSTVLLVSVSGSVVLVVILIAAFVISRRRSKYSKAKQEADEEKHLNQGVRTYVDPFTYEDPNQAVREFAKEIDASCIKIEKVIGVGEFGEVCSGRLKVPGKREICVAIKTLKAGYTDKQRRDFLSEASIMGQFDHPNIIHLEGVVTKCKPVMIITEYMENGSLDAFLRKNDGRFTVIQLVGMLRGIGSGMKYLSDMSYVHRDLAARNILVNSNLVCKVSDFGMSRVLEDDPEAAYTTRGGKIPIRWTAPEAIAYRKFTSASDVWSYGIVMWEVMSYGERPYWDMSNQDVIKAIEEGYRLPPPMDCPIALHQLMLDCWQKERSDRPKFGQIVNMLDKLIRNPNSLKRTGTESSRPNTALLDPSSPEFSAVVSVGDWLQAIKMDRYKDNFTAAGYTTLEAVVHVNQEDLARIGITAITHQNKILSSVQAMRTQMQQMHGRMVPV
smiles,measurement,setting,value
COc1cc(Nc2nc(C)cc(-c3cnn4nc(OC)ccc34)n2)cc(C(F)(F)F)c1,% of control,[1],74%
COc1cc(N(C)c2ccnc3ccc(C(F)(F)F)cc23)cc(OC)c1OC,% binding,[2],97%
CCN(CC)CCCCNc1ncc2cc(-c3cc(OC)cc(OC)c3)c(NC(=O)NC(C)(C)C)nc2n1,% of control,Ephrin type-A receptor 4,100%
CC[C@@H]1[C@H](F)C(=O)N[C@@H]1COc1nccc2cc(C(N)=O)c(OC)cc12 [ZIMLOVISERTIB],% of inhibition,[3],3.2%
same,% of inhibition,[4],4.3%
COCC(=O)NC/C=C/c1ccc2ncnc(Nc3ccc(Oc4ccc(C)nc4)c(C)c3)c2c1 [CP-724714],% of control,[5],100%
CCC(=O)N1CCN(c2ccc(-n3c(=O)ccc4cnc5ccc(-c6cnc7ccccc7c6)cc5c43)cc2C(F)(F)F)CC1,% of control,[6],100%
CN(C)C/C=C/C(=O)Nc1ccc(C(=O)N2CCCC(Nc3ncc(Cl)c(-c4c[nH]c5ccccc45)n3)C2)cc1 (stereo not drawn),% of control,[7],98%
Cc1cc([C@@H](C)Nc2ccccc2C(=O)O)c2nc(N3CCOCC3)cc(=O)n2c1 [AZD-6482],% of control,[8],100%
CN(C)CCOc1ccc(-c2nc(-c3ccncc3)c(-c3ccc4c(c3)CC/C4=N\O)[nH]2)cc1,% of control,[9],59%
Cc1cc(F)c(C(=O)Nc2cccc(-c3nncn3C(C)C)n2)cc1-n1cnc(C2CC2)c1,% of control,[10],22%
CNC(=O)Nc1ccc(-c2nc(N3CC4CCC(C3)O4)c3cnn(C4CCC5(CC4)OCCO5)c3n2)cc1,% of control,[11],75%
Cn1cc(-n2cnc3c(NCc4nc5cc(Cl)c(Cl)cc5[nH]4)nc(N4CCOCC4)nc32)cn1,% of inhibition,[12],-10.4%
